These results are taken from patent US9045793B2, “Method of regulating the expression level of survival of motor neuron 1” (KAOHSIUNG MEDICAL UNIVERSITY, priority 2011, dated 2015).

Peptide text beside a SMILES is read from it. * marks the point of attachment. Cbz = O=C(OCc1ccccc1)*

Assay [1] has as its system SMN protein in SMA patients' skin fibroblast cells. Briefly: Cellular SMN protein level in SMA patients' skin fibroblast cells. In kind it is cell-based, human. The method, then: (§1) Western blot analysis and immunohistochemical staining were performed as described previously. The primary antibodies used in this study were β-actin (1:2,000, Santa Cruz, 1-19), SMN (1:1,000, Santa Cruz, SC-32313), Gemin 2, Gemin 3 and Gemin 5 polyclonal antibody (1:200, Santa Cruz), UCHL1 monoclonal antibodies (1:2,000, Calbiochem.), HA-tag (1:2,000, Sigma), FITC-conjugated anti-mouse, alkaline phosphatase-conjugated anti-rabbit antibodies (1:500, Jackson ImmunoResearch Lab.) and anti-EGFP rabbit polyclonal antibody (1:5,000, produced in-house).
In order to investigate the possibility of therapeutic application, the UCHL1 specific inhibitor was also applied to the SMA patients' skin fibroblast cells. Type II and type III SMA skin fibroblast cells were treated with MG132, a proteasome inhibitor, and LDN-57444.

Assay [2] deals with nucleus gems in NSC34 cells. Briefly: Nucleus gems count by immunofluorescence staining (anti-Gemin 2). In kind it is cell-based. Particulars: for increase of gems number per one hundred cells comparing to vehicle: NSC34 cells, 10 μM; for Total number of nucleus gems per 100 cells: NSC-34 cells. The method, then: The cellular expression localization of UCHL1 and SMN was determined by immunofluorescence as previously described (Hsu, S. H. et al. (2004) Exp Cell Res, 294, 185-198). HEK 293 and NSC34 cells were cultured on coverslides pre-coated with poly-L-lysine for 16 hours. After washing with cold PBS, cells were fixed with 2% paraformaldehyde in PBS for 30 minutes on ice, and then the slides were washed with PBS for 30 minutes. Cells were permeabilized with buffer containing 0.2% Triton X-100 and 1% NGS in PBS for 20 minutes on ice, and then the slides were washed with PBS to remove excess detergent. Cells were then incubated in anti-EGFP (or anti-HA) and anti-SMN polyclonal antibody (1:200) for 1 hour at room temperature. After washing cells with PBS for 30 minutes, FITC-conjugated […] anti-rabbit and -mouse polyclonal antibody (1:300) was added and the cells were incubated for another 1 hour at room temperature in a humid chamber. Cells were finally counterstained with DAPI to localize the nucleus and observed by confocal microscopy.
In additional to the use of specific UCHL1 inhibitor, the specific shRNAi constructs for UCHL1 were also used to monitor the regulatory effects of UCHL1 on SMN protein. […] The knockdown efficiency of these shRNAi constructs to UCHL1 was 25, 70 and 47% of vector control and the SMN protein was increased 32, 46 and 47% (FIG. 5D). […] The cellular function of elevated SMN was also examined with nucleus gems by immuno-fluorescence staining (FIG. 5E). The nucleus gems stained with anti-Gemin 2 antibody were counted for one hundred NSC34 treated with vehicle or LDN-57444 for 24 hours and 48 hours.

Assay [3] deals with SMN protein in NSC34 cells. Briefly: Cellular SMN protein level after LDN-57444 treatment (Western blot). In kind it is cell-based. Particulars: for SMN protein expression level increase compared to the vehicle group: 5 μM; for SMN protein increase: 10 μM. Here is the method:
as §1
The cellular function of UCHL1 on SMN protein was further characterized with an over-expression assay. The UCHL1 was tagged with HA tag and over expressed in HEK293, p19 and NSC34 cells to evaluate the cellular function. […] The regulatory effect of UCHL1 was also confirmed with UCHL1 specific inhibitor (FIGS. 5A and 5B). SMN protein could effectively elevate expression level at 5 μM after LDN-57444 treatment for 8 (38%), 16 (42%), 24 (43%) and 48 (46%) hours compared to the vehicle group (FIGS. 5A and 5B).
In general terms: A western blot detects proteins with antibodies after separation by electrophoresis.

The subject of assay [4] is ubiquitinated SMN protein in NSC34 cells. Briefly: Cellular ubiquitination of SMN (anti-SMN immunoprecipitation, anti-ubiquitin blot). In kind it is cell-based. Particulars: different concentrations of inhibitor. The method, then:
Immunoprecipitation assays were performed as previously described with some modifications. Cells with endogenous or ectopically expressed UCHL1 were lysed with RIPA buffer containing 0.2% SDS. After sonication, the lysate was diluted with modified RIPA containing 1% NP-40 for immunoprecipitation. Anti-UCHL1 or anti-SMN antibodies were used to immunoprecipitate the protein. The re-suspended IP complexes were then analyzed by Western blot.
Next, to determine the functional significance of this interaction, purified UCHL1 tagged with 6×His was co-incubated with SMN immunoprecipitate and in vitro ubiquitination assay was performed. […] The SMN protein complex was immunoprecipitated from total cell extract treated with different concentrations of UCHL1 inhibitor and the level of ubiquitinated SMN was determined by the use of anti-ubiquitin antibody.

For `CC(=O)O/N=C1\C(=O)N(Cc2cc(Cl)ccc2Cl)c2ccc(Cl)cc21` [LDN-57444], the results for the “increase of cellular SMN protein level” value in assay [1] (type I SMA skin fibroblast cells), in assay [1] (type II SMA skin fibroblast cells) and in assay [1] (type III SMA skin fibroblast cells) were 52-62%, 31-38% and 72-87%, respectively. Besides, the figures for the “increase of gems number per one hundred cells comparing to vehicle” value in assay [2] (24 hours) and in assay [2] (48 hours) were 2.25 fold and 2.54 fold, respectively. Further, the “Total number of nucleus gems per 100 cells” value is 142±7.55 per 100 cells in assay [2] (10 μmol/l, 24 h); 164 ± 8.50 per 100 cells in assay [2] (10 μmol/l, 48 h, medium and LDN-57444 replaced each day); 189 ± 10.72 per 100 cells in assay [2] (20 μmol/l, 24 h); 193 ± 10.21 per 100 cells in assay [2] (20 μmol/l, 48 h, medium and LDN-57444 replaced each day). Further, the “SMN protein expression level increase compared to the vehicle group” value was 38% in assay [3] (8 hours), 42% in assay [3] (16 hours), 43% in assay [3] (24 hours) and 46% in assay [3] (48 hours). Besides, the SMN protein increase in assay [3] (8 hours) is recorded as 40%; in assay [3] (16 hours), 56%; in assay [3] (24 hours) it was 83%; in assay [3] (48 hours) it was 53%. Further, the “SMN protein level, time course at high dosage” value in assay [3] (15 μM) was “time delay increase in SMN protein level until 16 hours”.
With `CC(C)C[C@@H](C=O)NC(=O)[C@H](CC(C)C)NC(=O)[C@H](CC(C)C)NC(=O)OCc1ccccc1` [MG132] (Cbz-Leu-Leu-Leu-aldehyde), the “level of ubiquitinated SMN protein” value in assay [4] was “same enhancement”. Besides, the “cellular SMN protein level (in words)” value in assay [1] (SMA skin fibroblast cells, positive control) was “increased cellular SMN protein level”.
